According to PubChem BioAssay (NCI):
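48-hour exposure; five concentrations; linearly interpolated endpoints. TGI: concentration producing complete growth inhibition.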

Experiments:
Test in all cases: NCI anticancer screen, dose series, 48 h
T-47D breast = system: T-47D breast
NCI-H226 lung = system: NCI-H226 lung
SK-OV-3 ovarian = system: SK-OV-3 ovarian
OVCAR-8 ovarian = system: OVCAR-8 ovarian
SNB-75 CNS = system: SNB-75 CNS
UACC-257 melanoma = system: UACC-257 melanoma
HCC-2998 colon = system: HCC-2998 colon
IGROV1 ovarian = system: IGROV1 ovarian
SNB-19 CNS = system: SNB-19 CNS
BT-549 breast = system: BT-549 breast
DU-145 prostate = system: DU-145 prostate
SK-MEL-28 melanoma = system: SK-MEL-28 melanoma
RXF 393 renal = system: RXF 393 renal
NCI-H522 lung = system: NCI-H522 lung
SK-MEL-5 melanoma = system: SK-MEL-5 melanoma
RPMI-8226 leukemia = system: RPMI-8226 leukemia
SN12C renal = system: SN12C renal
MOLT-4 leukemia = system: MOLT-4 leukemia
MCF7 breast = system: MCF7 breast

In the case of `C/C(=C\[C@H]1C[C@@H]([C@@H]2CC[C@]34C[C@]23C=C[C@@H]2[C@@]3(C)CC=C5C[C@@H](c6ccccc6)OC[C@]5(C)[C@@H]3C[C@@H](O)[C@]24C)C(=O)O1)CO`, the TGI (T-47D breast) is reported as > 100 µM, the TGI (NCI-H226 lung) is reported as > 94.2 µM and the TGI (SK-OV-3 ovarian) is reported as > 61.8 µM. For the same compound, the TGI (OVCAR-8 ovarian) was > 100 µM, the TGI (SNB-75 CNS) was 92 µM and the TGI (UACC-257 melanoma) was 30.7 µM. The TGI (HCC-2998 colon) was > 26.4 µM, the TGI (IGROV1 ovarian) was 20.5 µM and the TGI (SNB-19 CNS) was > 86.7 µM. The TGI (BT-549 breast) was 98.6 µM, the TGI (DU-145 prostate) was > 67.9 µM and the TGI (SK-MEL-28 melanoma) was > 100 µM. The TGI (RXF 393 renal) was > 100 µM, the TGI (NCI-H522 lung) was 89.3 µM and the TGI (SK-MEL-5 melanoma) was 2.76 µM. For the same compound, the TGI (RPMI-8226 leukemia) was > 96.4 µM, the TGI (SN12C renal) was 5.57 µM and the TGI (MOLT-4 leukemia) was > 100 µM. For the same compound, the TGI (MCF7 breast) was > 100 µM.
`O=C(NO)c1ccc(OCc2ccccc2)cc1` was tested, and the TGI (T-47D breast) was 81.5 µM, the TGI (NCI-H226 lung) was > 100 µM and the TGI (SK-OV-3 ovarian) was > 100 µM. The TGI (OVCAR-8 ovarian) was 28.7 µM, the TGI (SNB-75 CNS) was > 100 µM and the TGI (UACC-257 melanoma) was > 100 µM. The TGI (HCC-2998 colon) was > 100 µM, the TGI (IGROV1 ovarian) was > 100 µM and the TGI (SNB-19 CNS) was > 100 µM. The TGI (BT-549 breast) was > 100 µM, the TGI (DU-145 prostate) was 68.9 µM and the TGI (SK-MEL-28 melanoma) was > 100 µM. The TGI (RXF 393 renal) was > 100 µM, the TGI (NCI-H522 lung) was 51.5 µM and the TGI (SK-MEL-5 melanoma) was > 100 µM. For the same compound, the TGI (RPMI-8226 leukemia) was > 100 µM, the TGI (SN12C renal) was > 100 µM and the TGI (MOLT-4 leukemia) was > 100 µM. For the same compound, the TGI (MCF7 breast) was > 100 µM.
For `COc1cc2c(cc1OC)C(=O)/C(=C/c1ccccc1)C2`, the TGI (T-47D breast) was > 100 µM, the TGI (NCI-H226 lung) was > 100 µM and the TGI (SK-OV-3 ovarian) was > 100 µM. For the same compound, the TGI (OVCAR-8 ovarian) was > 100 µM, the TGI (SNB-75 CNS) was 98.1 µM and the TGI (UACC-257 melanoma) was > 100 µM. For the same compound, the TGI (HCC-2998 colon) was > 100 µM, the TGI (IGROV1 ovarian) was > 100 µM and the TGI (SNB-19 CNS) was > 100 µM. For the same compound, the TGI (BT-549 breast) was > 100 µM, the TGI (DU-145 prostate) was > 100 µM and the TGI (SK-MEL-28 melanoma) was > 100 µM. For the same compound, the TGI (RXF 393 renal) was > 100 µM, the TGI (NCI-H522 lung) was > 100 µM and the TGI (SK-MEL-5 melanoma) was > 84.1 µM. The TGI (RPMI-8226 leukemia) was 71.6 µM, the TGI (SN12C renal) was > 100 µM and the TGI (MOLT-4 leukemia) was 43.9 µM. For the same compound, the TGI (MCF7 breast) was > 100 µM.
In the case of `Cc1ccc2cccc(OC(=O)c3cc4c(cc3Cl)Sc3nccn3S4(=O)=O)c2n1`, the TGI (T-47D breast) is reported as 13 µM, the TGI (NCI-H226 lung) is reported as > 75.7 µM and the TGI (SK-OV-3 ovarian) is reported as 84.2 µM. The TGI (OVCAR-8 ovarian) was 28.8 µM, the TGI (SNB-75 CNS) was 39.6 µM and the TGI (UACC-257 melanoma) was 25.4 µM. For the same compound, the TGI (HCC-2998 colon) was 13.1 µM, the TGI (IGROV1 ovarian) was 17.5 µM and the TGI (SNB-19 CNS) was 46.3 µM. The TGI (BT-549 breast) was > 78.1 µM, the TGI (DU-145 prostate) was 18.1 µM and the TGI (SK-MEL-28 melanoma) was 30.8 µM. For the same compound, the TGI (RXF 393 renal) was 20.5 µM, the TGI (NCI-H522 lung) was 38 µM and the TGI (SK-MEL-5 melanoma) was 27 µM. For the same compound, the TGI (RPMI-8226 leukemia) was 7.03 µM, the TGI (SN12C renal) was > 100 µM and the TGI (MOLT-4 leukemia) was 19.8 µM. The TGI (MCF7 breast) was 18.4 µM.
With `CC(=O)O[C@H]1C(=O)[C@@]2(C)[C@H]([C@H](OC(=O)c3ccncc3)[C@]3(O)C[C@H](OC(=O)[C@H](O)[C@@H](NC(=O)c4ccccc4)c4ccccc4)C(C)=C1C3(C)C)[C@]1(OC(C)=O)CO[C@@H]1C[C@@H]2O` the TGI (T-47D breast) was > 25 µM, the TGI (NCI-H226 lung) was > 25 µM and the TGI (SK-OV-3 ovarian) was > 25 µM. The TGI (OVCAR-8 ovarian) was > 25 µM, the TGI (SNB-75 CNS) was > 18.1 µM and the TGI (UACC-257 melanoma) was > 25 µM. For the same compound, the TGI (HCC-2998 colon) was 11 µM, the TGI (IGROV1 ovarian) was > 25 µM and the TGI (SNB-19 CNS) was > 25 µM. For the same compound, the TGI (BT-549 breast) was > 25 µM, the TGI (DU-145 prostate) was > 25 µM and the TGI (SK-MEL-28 melanoma) was > 25 µM. For the same compound, the TGI (RXF 393 renal) was > 23.3 µM, the TGI (NCI-H522 lung) was 10.2 µM and the TGI (SK-MEL-5 melanoma) was > 22 µM. The TGI (RPMI-8226 leukemia) was 6.5 µM, the TGI (SN12C renal) was > 25 µM and the TGI (MOLT-4 leukemia) was > 25 µM. The TGI (MCF7 breast) was > 25 µM.
In the case of `CCOC(=O)c1nc2ccc(C(F)(F)F)cc2nc1Nc1ccc(OC)c(OC)c1`, the TGI (T-47D breast) is reported as > 100 µM, the TGI (NCI-H226 lung) is reported as > 100 µM and the TGI (SK-OV-3 ovarian) is reported as > 100 µM. The TGI (OVCAR-8 ovarian) was > 100 µM, the TGI (SNB-75 CNS) was 67.4 µM and the TGI (UACC-257 melanoma) was > 100 µM. For the same compound, the TGI (HCC-2998 colon) was > 100 µM, the TGI (IGROV1 ovarian) was > 100 µM and the TGI (SNB-19 CNS) was > 100 µM. For the same compound, the TGI (BT-549 breast) was > 100 µM, the TGI (DU-145 prostate) was > 100 µM and the TGI (SK-MEL-28 melanoma) was > 100 µM. For the same compound, the TGI (RXF 393 renal) was > 100 µM, the TGI (NCI-H522 lung) was > 100 µM and the TGI (SK-MEL-5 melanoma) was > 100 µM. The TGI (RPMI-8226 leukemia) was > 100 µM, the TGI (SN12C renal) was > 100 µM and the TGI (MOLT-4 leukemia) was > 100 µM. The TGI (MCF7 breast) was > 100 µM.
